Test [1] is described as follows: In vitro H2O hydrolysis and oxygen evolution catalyzed by LEAT protein under light. Type of test: biochemical. Details: key to O2 evolution activity: +: similar O2 evolution activity as that of YFP; ++: higher O2 evolution activity than that of YFP by at least one order of magnitude; weak: lower activity than that of YFP by at least one order of magnitude. To be noted: for O2 evolution activity: water hydrolysis and O2 evolution under light, relative to YFP. Here is the method:
1.85 ml of 50 mM phosphate buffer (pH6.5) was added in the reaction vessel of Clark-type oxygen electrode, then LEAT proteins (at a final concentration of 0.02-1 μg/ml) and 400 μM 2,3,5-trimethyl-1,4-benzoquinone (TMBQ) or other quinones were sequentially added into the buffer in dark. The oxygen evolution rate was measured under the light with corresponding excitation wave length for LEAT proteins and light intensity at 1-2 μmol m^−2 s^−1.

Test [2] in a line: Electron donation by pre-illuminated LEAT protein (NAD+/NADP+ reduction). In kind it is biochemical. Here is the method:
FIG. 1. The effects of light on NAD^+ or NAPD^+ reduction by YFP.
It was reported that proteins such as GFP can function as electron donor to reduce the oxidized small compounds such as NAD^+, potassium ferricyanide, and some proteins such as cytochrome c, and FAD-containing proteins (Bogdanov A. M. et al, 2009, Nature Chemical Biology. 5:459-461), The invertors used E. coli to express and purify recombinant proteins. […] Quinone reduction under light was analyzed by monitoring the decrease of absorption at 436 nm.

The next test concerns Brassica. Nature of the test: Growth, biomass and yield of transgenic Brassica. In kind it is in vivo, Brassica napus L. To be noted: T1 transgenic Brassica, vegetative stage. From the text:
FIG. 14. (A) WT, empty vector control (pHB) and mCherry transgenic Brassica (L1-L3) were germinated and grown for one week in the phytotron under white light (PPFD:250 μmol m^−2s^−1). Then the plants were moved and grown under white light, green light (PFD: 60 μmol m^−2s^−1) or red+blue light (red light PFD; 60 μmol m^−2s^−1, blue light PFD; 10 μmol m^−2s^−1) for another 3 weeks and photos were taken, (B) Comparison of the fresh weights and dry weights of WT and mCherry transgenic Brassica grown under white light, green light or red+blue light for four weeks. Values in the figures are means±SD, for WT, n=10, for transgenic plant transformed with empty vector control pHB and mCherry, data were the averages of three independent lines and 10 plants for each line. **p≦0.01. (C) Net photosynthetic rate of WT and mCherry transgenic Brassica measured under different light qualities. Nine-week-old WT and mCherry transgenic Brassica grown in the phytotron (PPFD: 250 μmol m^−2s^−1) were transferred and treated with different qualities of light for 4 days and net photosynthetic rate was measured. (D) Net photosynthetic rate of WT and mCherry transgenic Brassica grow in the natural field measured under different PPFD as light source. Net photosynthetic rate was measured in situ between 10:00 am and 12:00 pm. […] FIG. 15. (A) Measurement of the fresh weight and dry weight per plant of 7-week-old WT and mCherry transgenic Brassica plants grown in the natural field conditions. Values in the figures are means±SD, n=10. *p≦0.05, **p≦0.01. (B) Comparison of the plant size, silique size, seed size, grain yield per plant and 1000-seed weight at the harvesting time. Values in the figures are means±SD, n=10. *p≦0.05, **p≦0.01. Wild type (WT), transgenic Brassica with empty vector (pHB) and mCherry transgenic Brassica (L1-L3) were germinated in the phytotron under white light (light intensity: 250 μmol m^−2s^−1) for 1 week. Then the plants were transferred and continued to grow under white light, green light (light intensity: 60 μmol m^−2s^−1), red+blue light (intensity of red light: 60 μmol m^−2s^−1; intensity of blue light: 10 μmol m^−2s^−1). The […] were taken three weeks after transfer.

For the substance “YFP: yellow fluorescent protein, amino acid sequence SEQ ID NO: 8”, in test [1] (TMBQ substituted with DQ or UQ), the “water photohydrolysis and O2 evolution activity under light” value was “does not have water photohydrolysis and O2 evolution activity”. In test [1] (different quinones, under light), the “activity of water hydrolysis among the quinones tested (order)” value is listed as “TMBQ>DMBQ2>MBQ>DMBQ1”. The O2 evolution activity result in test [1] is “+”. Moreover, the “function as electron donor under light” value in test [2] is “cannot continuously provide electrons under light”.

Consider “eqFP611: fluorescent protein from Entacmaea quadricolor (AY130757), SEQ ID NO: 30”, for which the O2 evolution activity result in test [1] is on record as “+”.

Take “mCherrymu3: mCherry mutant S151C S152C K167M, SEQ ID NO: 22”: the “O2 evolution rate, increase” value in test [1] (vs non-mutated protein, under light) was found to be 6 folds. Further, the “plant growth vs WT” value in the test on Brassica is given as “grow better than WT”.

In the case of “mCherrymu4: mCherry mutant S151C S152C K167M I202A, SEQ ID NO: 24”, the “plant growth vs WT” value in the test on Brassica was “grow better than WT”.

As for “mCherrymu5: mCherry mutant S151C S152C H166N K167M I202A, SEQ ID NO: 26”, the “plant growth vs WT” value in the test on Brassica was “grow better than WT”.
